We go through 1 compound from paper PMC6696115, “Characterization of Antimicrobial, Antioxidant, and Leishmanicidal Activities of Schiff Base Derivatives of 4-Aminoantipyrine” (Molecules, 2019).

The subject of series [1] is S. cerevisiae wild-type (W303 and BY4741 backgrounds). Nature of the series: drop test, wild-type yeast. The format is cell-based, Saccharomyces cerevisiae. The following applies: 200 µg/mL, 48 h, 25 °C. On the procedure: Since the Schiff bases have a limited solubility in dimethyl sulfoxide (DMSO), first, we tested the toxicity of DMSO against the selected microorganism. […] Wild-type cells from W303 background seem to be more resistant, and sensitivity is observed at around 4% DMSO.
(§1) Next, we wanted to evaluate the oxidative activity. To do this, drop test assays were performed with wild-type (W303 and BY4741 backgrounds) and sod1 (BY4741 background) yeast cells in the presence of 200 µg/mL of the analyzed Schiff bases (Figure 3). The SOD1 gene encodes superoxide dismutase 1, an enzyme with a major role in detoxifying ROS species generated during metabolism or because of environmental exposure. sod1 mutant cells are unprotected against oxidative agents, decreasing survival in their presence. […] Also, wild-type cells are shown as control, unaffected by the Schiff bases.
(§2) For the drop test with S. cerevisiae, wild-type strain (background W303), and wild type and sod1 mutant cells (background BY4741) were grown overnight in YPAD media until an optical density of 0.5 at 600 nm was reached (equivalent to 1 × 10^7 cells/mL). Three serial dilutions were prepared and 5 µL of each was spotted onto a plate (approximately 1 × 10^5, 1 × 10^4, 1 × 10^3, and 1 × 10^2 cells/spot). YPAD plates were supplemented with 200 µg/mL of each Schiff base, and one plate supplemented with 2% DMSO and one plate with YPAD without any drug were used as controls. Plates were incubated at 25 °C for 24, 48, and 72 h.

The test system of series [2] is promastigotes from L. mexicana (M379). Nature of the series: leishmanicidal activity, MTT colorimetric assay. Type of series: cell-based. The following applies: Leishmania mexicana, 48 h exposure, 1% DMSO. The procedure:
Leishmanicidal activities of all Schiff bases were evaluated by measuring promastigote mitochondrial activity using MTT colorimetric assay as described previously. […] The medium was renewed every four days. Parasite density was determined in a Neubauer chamber.
Into each well of a 96-well cell culture dish was dispensed 1 × 10^6 parasites. A stock solution of each of the Schiff Base was prepared in DMSO, and serial dilutions were added to the parasite suspension, keeping the solvent concentration at 1%. The final volume was 100 µL for each well and triplicate conditions were carried out. Pentamidine treatment (100 µg/mL) and untreated parasites were used as positive control and negative control, respectively. After exposure to the compounds for 48 h in culture medium, 10 µL of a solution of 5 mg/mL MTT dissolved in PBS was added to each well. […] Later, the plate was centrifuged at 4400 rpm for 10 min and the culture medium was then aspirated. Next, 100 µL of DMSO were added into each well to solubilize the formazan and the plate was shaken for 5 min. The colored formazan salt was measured by recording changes in absorbance at 570 nm using a microplate reader, a BioTek Synergy HT spectrophotometer. A reference wavelength of 630 nm was used to subtract background. Optical densities were analyzed as the quantity of formazan is directly proportional to the number of viable parasites. Data were analyzed with the statistical software GraphPad Prism.

Series [3] deals with P. aeruginosa ATCC 27853. The series is described as follows: antimicrobial serial microdilution, P. aeruginosa. The format is cell-based. The following applies: Pseudomonas aeruginosa, ATCC27853, 37 °C, 24 h. On the procedure:
(§3) The in vitro antifungal and antimicrobial activities were determined by testing the Schiff bases against the fungi Saccharomyces cerevisiae, Candida albicans, and Aspergillus niger and the bacteria Staphylococcus aureus, Enterococcus faecalis (Gram-positive), Pseudomonas aeruginosa, and Escherichia coli (Gram-negative).
(§4) The bacterial inoculum was prepared by emulsifying overnight colonies from an agar medium in broth (Mueller–Hinton broth). The suspensions were adjusted to a final organism density of 5 × 10^5 colony former units (cfu)/mL. […] The emulsifying of A. niger cultures was done by pouring 5 mL of saline and 0.1% of polysorbate 80 over the Petri dishes. Then, 100 µL of this suspension were diluted in 5 mL of saline and adjusted to an optical density of 0.1 at 530 nm. For S. cerevisiae, fresh exponential YPAD (yeast extract 1%, peptone 2%, adenine 0.004%, […]) cultures were adjusted to an optical density of 0.5 at 600 nm, and then diluted to the equivalent of 1 × 10^4 cells/mL (10^−3 dilution). Stock solutions of Schiff bases were prepared by dissolving them in DMSO at 10 mg/mL. […] The range of concentrations used was empirically selected for each organisms and the Schiff base. Drug sensitivities were assayed by serial dilutions in 96-well plates as previously described. A row with media and cells but without drug was the positive control. The blank was done by preparing a row with media and drugs, but without cells. Plates were fitted with a tight lid before incubation to prevent desiccation. […] The minimum bactericidal concentration (MBC) and fungicidal concentration (MFC) were determined by spreading 100 µL of culture from each well onto a plate (Mueller–Hinton agar for bacteria, Sabouraud dextrose agar for fungi except S. cerevisiae, and YPAD for S. cerevisiae).

For series [4], the system named is S. cerevisiae wild type (BY4741). The series is described as follows: growth inhibition (OD600) of wild-type yeast, oxidative effect. Type of series: cell-based, Saccharomyces cerevisiae. The settings on record: unit not given. The procedure:
(§5) Next, we wanted to evaluate the oxidative activity. To do this, drop test assays were performed with wild-type (W303 and BY4741 backgrounds) and sod1 (BY4741 background) yeast cells in the presence of 200 µg/mL of the analyzed Schiff bases (Figure 3). The SOD1 gene encodes superoxide dismutase 1, an enzyme with a major role in detoxifying ROS species generated during metabolism or because of environmental exposure. sod1 mutant cells are unprotected against oxidative agents, decreasing survival in their presence.
(§6) (A) Drop test of serial dilution of yeast cell cultures (wild type from genetic background W303, wild type from genetic background BY4741, and sod1 mutant from genetic background BY4741) exposed to Schiff bases at 200 µg/mL. A control without drug and with 2% DMSO are included.
as §4

Series [5] deals with Enterococcus faecalis ATCC 29212. Nature of the series: antimicrobial serial microdilution, E. faecalis. Type of series: cell-based. The settings on record: Enterococcus faecalis, ATCC29212; serial microdilution, 37 °C, 24 h. The procedure:
as §3, §4
In general terms: Dilution methods test growth across graded concentrations, often in twofold steps.

Series [6] concerns S. cerevisiae sod1 mutant cells (background BY4741). Nature of the series: drop test, sod1 mutant yeast. The format is cell-based, Saccharomyces cerevisiae. The settings on record: 200 µg/mL, 48 h, 25 °C, compared to control. The procedure: as §1, §2
A short description of series [7]: DPPH radical scavenging assay. The format is biochemical. The procedure: This was used immediately. The experimental procedure was adapted from the literature. Briefly, in a 96-well plate, 100 µL of solution of DPPH (2, 2-diphenyl-1-picrylhydrazyl) radical (0.2 mM in methanol) was added to 100 µL of methanolic solutions of 3a–j, 4, or 5, prepared as serial two-fold dilutions from the stock solution. Standards were also prepared in the same concentrations.
The percentage of DPPH scavenging was then calculated by using the following formula: % DPPH scavenging=100∗Asample+DPPH−Asample blank/ADPPH−Asolvent

Series [8] concerns Staphylococcus aureus ATCC 29213. Nature of the series: antimicrobial serial microdilution, S. aureus. The settings on record: Staphylococcus aureus, ATCC29213; serial microdilution, 37 °C, 24 h. Type of series: cell-based. The procedure:
as §3, §4

Series [9] has as its system S. cerevisiae sod1 mutant (BY4741). The series is described as follows: growth inhibition (OD600) of sod1 mutant yeast, oxidative effect. The format is cell-based, Saccharomyces cerevisiae. The settings on record: sod1 mutant BY4741, unit not given. The procedure: as §5, §6, §4
Series [10] has as its system Escherichia coli ATCC 25922. Nature of the series: antimicrobial serial microdilution, E. coli. Type of series: cell-based. The settings on record: serial microdilution, 37 °C, 24 h. The procedure:
as §3, §4

Series [11] relates to Candida albicans ATCC 10231. The series is described as follows: antimicrobial serial microdilution, C. albicans. Type of series: cell-based. The settings on record: Candida albicans, ATCC10231; serial microdilution, 35 °C, 48 h. The procedure:
as §3, §4

In series [12] the test system is S. cerevisiae (backgrounds W303 and BY4741). Nature of the series: antimicrobial serial microdilution, S. cerevisiae. The format is cell-based, Saccharomyces cerevisiae. The settings on record: serial microdilution, 35 °C, 48 h. The procedure: as §3, §4
For series [13], the system named is S. cerevisiae. Nature of the series: biocidal/biostatic evaluation, plating on drug-free media, S. cerevisiae. Type of series: cell-based, Saccharomyces cerevisiae. The following applies: 24 h exposure, then plated on media free of drug. On the procedure: as §4, with “cells.” for “cells. Plates were fitted with a tight lid before incubation to prevent desiccation.”

Series [14] deals with Aspergillus niger ATCC 6275. The series is described as follows: antimicrobial serial microdilution, A. niger. The format is cell-based. The settings on record: Aspergillus niger, ATCC6275; serial microdilution, 96-well plates, 35 °C, 48 h, max 2% DMSO. The procedure: as §3, §4

The structures appear in SMILES notation. In brackets after ≈: the same amount, converted by molar mass.

By IC50 is commonly meant the concentration that gives 50% inhibition. Broadly, the MIC is the smallest concentration in the dilution series that meets the test's criterion for growth inhibition. For orientation: melting point means the temperature, or range, at which the solid turns liquid. The compound `Cc1c(N=CC=Cc2ccccc2)c(=O)n(-c2ccccc2)n1C` [Compound 5, 4-Phenylallylideneamino-1,5-dimethyl-2-phenyl-1H-pyrazol-3(2H)-one] showed a melting point of 165.5 to 165.9 °C. Moreover, in [1], the “effect on wild-type cells in drop test” value is “unaffected”. Further, the IC50 in [2] turned out to be 81.5 ± 12.5 µM. In series [3], the MIC was above 200 µg/mL. Also, the “NIC Wt” value in series [4] was 22.6 ± 0.6. For the same compound, the “MIC Wt” value in series [4] (in µg/mL) amounted to 65.2 ± 0.2. In series [5], this compound came in with a minimal inhibitory concentration (MIC) above 200 µg/mL. Further, in series [6], the “sensitivity of sod1 cells in drop test” value is “sensitive”. For the same compound, the IC50 in series [7] (30 min, room temperature, dark, absorbance 515 nm) is above 200 µM. Moreover, the “antioxidant activity detected in the DPPH assay” value in series [7] (statement in words) is listed as “no significant antioxidant activity”. Also, the minimal inhibitory concentration (MIC) in [8] was above 200 µg/mL. The “NIC sod1” value in series [9] came out at 19.5 ± 0.8. Moreover, the “MIC sod1” value in [9] (in µg/mL) was found to be 39.4 ± 0.9. Moreover, in series [10] (Escherichia coli, ATCC25922), the IC50 is 12.4 µg/mL (≈ 39.1 µM) and the MIC came to 22.6 ± 14.1 µg/mL (≈ 71.2 µM). In addition, in series [10] (noninhibitory concentration), the “NIC E. coli” value came out at 5.1 ± 2.4 µg/mL. Also, the minimum inhibitory concentration (MIC) in series [11] is above 200 µg/mL. Also, in series [12] (Saccharomyces cerevisiae, read-out: IC50 S. cerevisiae (converted)), the IC50 is 22.8 µg/mL (≈ 71.8 µM). Also, in [12] (Saccharomyces cerevisiae, read-out: MIC S. cerevisiae), the MIC came out at 76.7 ± 5.7 µg/mL (≈ 242 µM). Also, the “NIC S. cerevisiae” value in series [12] (noninhibitory concentration) came out at 6.6 ± 0.7 µg/mL. For the same compound, in series [13], the “inhibitory mechanism (fungicidal or fungistatic)” value is reported as “fungicidal”. For the same compound, in series [14], the MIC was above 200 µg/mL.
